Source: BindingDB's records for doi:10.1021/jm020211+ (National Institute of Diabetes and Digestive and Kidney …, 2002)

Molecular target: T1, Adenosine receptor A3 (Homo sapiens, UniProt P0DMS8)
T1 sequence (P0DMS8 whole entry): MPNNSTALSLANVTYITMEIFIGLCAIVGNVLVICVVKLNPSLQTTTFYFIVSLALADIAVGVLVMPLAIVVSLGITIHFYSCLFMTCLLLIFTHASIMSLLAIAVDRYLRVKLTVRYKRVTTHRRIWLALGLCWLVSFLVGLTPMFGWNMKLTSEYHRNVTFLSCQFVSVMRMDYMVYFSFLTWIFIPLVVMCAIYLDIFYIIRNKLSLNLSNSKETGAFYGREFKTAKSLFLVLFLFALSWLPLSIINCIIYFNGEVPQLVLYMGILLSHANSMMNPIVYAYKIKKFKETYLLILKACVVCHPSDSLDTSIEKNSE
Experiment: Effect on forskolin-stimulated cyclic AMP production in intact chinese hamster ovary (CHO) cell expressing the human Adenosine A3 receptor

For `Nc1nc(Cl)nc2c1ncn2C1C(O)C(O)C2(CO)CC12` (stereo unspecified) [4-(6-Amino-2-chloro-purin-9-yl)-1-hydroxymethyl-bicyclo[3.1.0]hexane-2,3-diol], the EC50 was 0.803 µM.
